Values of other authors, collected in patent US9101541B2 (Cadila Healthcare Limited, priority 2010, dated 2015).

Columns and labels:
[1] = oral administration

time to maximum blood concentrations after dosing [1]: 0.5 to 2.3 h
oil and water solubility: poor oil and water solubility
BCS class (Pharmaceutical Research, Vo. 22, No. 1, January 2005, Chi-Yuan Wu et al.): BCS Class 2
Compound: CO[C@H]1C[C@@H]2CC[C@@H](C)[C@@](O)(O2)C(=O)C(=O)N2CCCC[C@H]2C(=O)O[C@H]([C@H](C)C[C@@H]2CC[C@@H](O)[C@H](OC)C2)CC(=O)[C@H](C)/C=C(\C)[C@@H](O)[C@@H](OC)C(=O)[C@H](C)C[C@H](C)/C=C/C=C/C=C/1C [Sirolimus, (3S,6R,7E,9R,10R,12R,14S,15E,17E,19E,21S,23S,26R,27R,34aS)-9,10,12,13,14,21,22,23,24,25,26,27,32,33,34,34a-hexadecahydro-9,27-dihydroxy-3-[(1R)-2-[(1S,3R,4R)-4-hydroxy-3-methoxycyclohexyl]-1-methylethyl]-10,21-dimethoxy-6,8,12,14,20,26-hexamethyl-23,27-epoxy-3H-pyrido[2,1-c][1,4]oxaazacyclohentriacontine-1,5,11,28,29 (4H,6H,31H)-pentone]
